The results in this text go back to ChEMBL document CHEMBL5291721, “A preclinical secondary pharmacology resource illuminates target-adverse drug reaction associations of marketed drugs” (Nat Commun, 2023).

Among the targets are Melanocortin receptor 3 (Homo sapiens, UniProt P41968); Adenosine receptor A2a (Homo sapiens, UniProt P29274); D(3) dopamine receptor (Homo sapiens, UniProt P35462).
In assay [1] the target is Sodium-dependent noradrenaline transporter (Homo sapiens, UniProt P23975).
In another assay the target is T1, Adenosine receptor A1 (Homo sapiens, UniProt P30542).
T1 sequence (P30542 whole entry): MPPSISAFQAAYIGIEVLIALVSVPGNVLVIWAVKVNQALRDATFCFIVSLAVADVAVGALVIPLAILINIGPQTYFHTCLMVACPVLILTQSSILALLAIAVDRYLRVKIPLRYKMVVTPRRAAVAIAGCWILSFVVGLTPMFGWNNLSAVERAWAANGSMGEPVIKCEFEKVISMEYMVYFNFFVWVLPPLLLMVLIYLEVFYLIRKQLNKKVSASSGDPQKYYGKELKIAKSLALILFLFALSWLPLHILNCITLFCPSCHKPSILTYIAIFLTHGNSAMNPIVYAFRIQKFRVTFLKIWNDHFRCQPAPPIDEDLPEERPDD

Assay [2] has as its target Voltage-gated inwardly rectifying potassium channel KCNH2 (Homo sapiens, UniProt Q12809). The class given is functional. The settings on record: read-out: AC50.
A further assay addresses T2, Adenosine receptor A3 (Homo sapiens, UniProt P0DMS8).
T2 sequence (P0DMS8 whole entry): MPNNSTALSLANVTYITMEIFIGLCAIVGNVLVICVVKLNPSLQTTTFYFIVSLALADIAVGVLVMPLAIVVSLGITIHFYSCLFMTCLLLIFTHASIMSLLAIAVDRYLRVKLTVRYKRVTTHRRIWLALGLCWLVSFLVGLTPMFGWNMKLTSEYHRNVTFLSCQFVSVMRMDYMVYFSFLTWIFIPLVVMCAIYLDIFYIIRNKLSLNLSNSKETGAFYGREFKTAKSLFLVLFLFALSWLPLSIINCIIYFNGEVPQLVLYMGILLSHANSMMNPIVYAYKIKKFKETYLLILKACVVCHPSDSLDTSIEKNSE

The target of assay [3] is T3, 5-hydroxytryptamine receptor 1A (Homo sapiens, UniProt P08908).
T3 sequence (P08908 whole entry): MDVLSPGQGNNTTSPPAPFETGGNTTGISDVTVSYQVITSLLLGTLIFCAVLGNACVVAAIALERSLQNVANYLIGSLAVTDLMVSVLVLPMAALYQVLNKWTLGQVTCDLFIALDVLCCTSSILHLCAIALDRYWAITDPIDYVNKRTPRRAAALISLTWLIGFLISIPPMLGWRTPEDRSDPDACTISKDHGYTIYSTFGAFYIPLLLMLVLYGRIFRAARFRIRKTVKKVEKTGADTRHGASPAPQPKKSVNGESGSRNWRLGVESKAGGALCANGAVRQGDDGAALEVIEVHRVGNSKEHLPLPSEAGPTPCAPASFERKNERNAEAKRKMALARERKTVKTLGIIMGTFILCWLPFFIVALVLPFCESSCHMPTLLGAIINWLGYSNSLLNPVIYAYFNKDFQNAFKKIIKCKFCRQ
The class given is functional, cell-based.

Assay [4] has as its target T4, Equilibrative nucleoside transporter 1 (Homo sapiens, UniProt Q99808).
T4 sequence (Q99808 whole entry): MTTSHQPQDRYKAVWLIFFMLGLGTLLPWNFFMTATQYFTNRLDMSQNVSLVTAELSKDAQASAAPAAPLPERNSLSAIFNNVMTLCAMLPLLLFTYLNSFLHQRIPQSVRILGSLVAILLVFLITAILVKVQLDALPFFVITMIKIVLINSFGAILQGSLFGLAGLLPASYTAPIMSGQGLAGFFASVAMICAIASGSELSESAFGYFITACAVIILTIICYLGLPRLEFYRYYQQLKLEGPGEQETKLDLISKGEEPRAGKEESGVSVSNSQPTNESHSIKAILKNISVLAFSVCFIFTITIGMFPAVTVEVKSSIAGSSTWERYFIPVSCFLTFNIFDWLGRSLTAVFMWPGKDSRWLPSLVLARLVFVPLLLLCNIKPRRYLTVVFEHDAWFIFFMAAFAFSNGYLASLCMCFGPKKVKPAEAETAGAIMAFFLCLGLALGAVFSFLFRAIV

For assay [5], the target named is T5, Cholecystokinin receptor type A (Homo sapiens, UniProt P32238).
T5 sequence (P32238 whole entry): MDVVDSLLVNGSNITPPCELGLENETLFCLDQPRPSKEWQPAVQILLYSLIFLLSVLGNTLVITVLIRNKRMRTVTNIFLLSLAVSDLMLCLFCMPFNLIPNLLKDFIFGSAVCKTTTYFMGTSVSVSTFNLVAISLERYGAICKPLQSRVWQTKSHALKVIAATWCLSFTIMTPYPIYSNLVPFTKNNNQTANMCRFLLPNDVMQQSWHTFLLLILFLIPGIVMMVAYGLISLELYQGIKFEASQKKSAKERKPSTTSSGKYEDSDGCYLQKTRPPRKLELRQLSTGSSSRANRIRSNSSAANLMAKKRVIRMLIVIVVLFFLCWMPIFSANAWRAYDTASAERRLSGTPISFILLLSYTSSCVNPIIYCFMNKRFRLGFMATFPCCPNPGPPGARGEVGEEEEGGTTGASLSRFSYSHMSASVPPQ

The target in assay [6] is cGMP-inhibited 3',5'-cyclic phosphodiesterase 3A (Homo sapiens, UniProt Q14432). The class given is functional.
Chain of cGMP-inhibited 3',5'-cyclic phosphodiesterase 3A (Q14432 whole entry): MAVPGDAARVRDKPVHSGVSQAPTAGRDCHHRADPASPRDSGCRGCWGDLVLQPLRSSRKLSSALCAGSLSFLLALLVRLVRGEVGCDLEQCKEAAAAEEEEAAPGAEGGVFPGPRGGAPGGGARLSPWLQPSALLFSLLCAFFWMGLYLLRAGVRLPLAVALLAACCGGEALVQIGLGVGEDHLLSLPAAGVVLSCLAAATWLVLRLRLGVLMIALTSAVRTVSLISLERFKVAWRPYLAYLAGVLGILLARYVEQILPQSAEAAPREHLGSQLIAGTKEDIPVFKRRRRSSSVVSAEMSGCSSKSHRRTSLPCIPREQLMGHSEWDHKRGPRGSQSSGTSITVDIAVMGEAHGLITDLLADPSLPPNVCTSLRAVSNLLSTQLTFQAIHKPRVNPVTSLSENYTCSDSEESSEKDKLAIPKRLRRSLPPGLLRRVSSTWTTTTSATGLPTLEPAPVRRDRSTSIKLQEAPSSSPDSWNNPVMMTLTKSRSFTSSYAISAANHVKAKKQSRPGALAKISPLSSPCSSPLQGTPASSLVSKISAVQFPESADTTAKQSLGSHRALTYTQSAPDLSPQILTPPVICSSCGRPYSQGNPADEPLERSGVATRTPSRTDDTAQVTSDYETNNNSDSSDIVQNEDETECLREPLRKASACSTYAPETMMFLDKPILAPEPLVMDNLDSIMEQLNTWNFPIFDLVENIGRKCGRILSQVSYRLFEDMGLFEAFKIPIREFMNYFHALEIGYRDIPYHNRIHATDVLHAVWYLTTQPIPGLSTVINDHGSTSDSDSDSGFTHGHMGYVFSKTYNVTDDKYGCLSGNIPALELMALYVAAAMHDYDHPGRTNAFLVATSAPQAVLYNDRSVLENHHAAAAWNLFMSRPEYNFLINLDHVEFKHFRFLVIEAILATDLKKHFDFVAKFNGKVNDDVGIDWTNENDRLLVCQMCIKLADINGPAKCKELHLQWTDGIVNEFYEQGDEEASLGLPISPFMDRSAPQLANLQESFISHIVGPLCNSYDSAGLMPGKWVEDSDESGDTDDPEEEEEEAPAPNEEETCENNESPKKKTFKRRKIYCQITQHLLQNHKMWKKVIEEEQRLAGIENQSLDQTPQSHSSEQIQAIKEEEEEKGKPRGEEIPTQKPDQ
In a further assay the target is D(1A) dopamine receptor (Homo sapiens, UniProt P21728). The class given is functional, cell-based.
Chain of D(1A) dopamine receptor (P21728 whole entry): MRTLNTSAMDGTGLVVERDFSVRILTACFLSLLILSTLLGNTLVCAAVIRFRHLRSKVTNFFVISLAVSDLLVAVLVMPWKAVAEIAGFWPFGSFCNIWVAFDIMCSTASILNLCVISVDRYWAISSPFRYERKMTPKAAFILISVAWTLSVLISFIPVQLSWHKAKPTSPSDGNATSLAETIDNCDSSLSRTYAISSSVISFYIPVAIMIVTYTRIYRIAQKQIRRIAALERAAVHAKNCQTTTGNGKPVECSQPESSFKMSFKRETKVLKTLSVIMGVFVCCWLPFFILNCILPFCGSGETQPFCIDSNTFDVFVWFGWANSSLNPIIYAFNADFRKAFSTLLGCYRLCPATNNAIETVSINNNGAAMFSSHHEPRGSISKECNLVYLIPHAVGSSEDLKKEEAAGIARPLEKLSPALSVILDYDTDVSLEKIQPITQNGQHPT
Note: assay procedure not described here.

Chain of Sodium-dependent noradrenaline transporter (P23975 whole entry): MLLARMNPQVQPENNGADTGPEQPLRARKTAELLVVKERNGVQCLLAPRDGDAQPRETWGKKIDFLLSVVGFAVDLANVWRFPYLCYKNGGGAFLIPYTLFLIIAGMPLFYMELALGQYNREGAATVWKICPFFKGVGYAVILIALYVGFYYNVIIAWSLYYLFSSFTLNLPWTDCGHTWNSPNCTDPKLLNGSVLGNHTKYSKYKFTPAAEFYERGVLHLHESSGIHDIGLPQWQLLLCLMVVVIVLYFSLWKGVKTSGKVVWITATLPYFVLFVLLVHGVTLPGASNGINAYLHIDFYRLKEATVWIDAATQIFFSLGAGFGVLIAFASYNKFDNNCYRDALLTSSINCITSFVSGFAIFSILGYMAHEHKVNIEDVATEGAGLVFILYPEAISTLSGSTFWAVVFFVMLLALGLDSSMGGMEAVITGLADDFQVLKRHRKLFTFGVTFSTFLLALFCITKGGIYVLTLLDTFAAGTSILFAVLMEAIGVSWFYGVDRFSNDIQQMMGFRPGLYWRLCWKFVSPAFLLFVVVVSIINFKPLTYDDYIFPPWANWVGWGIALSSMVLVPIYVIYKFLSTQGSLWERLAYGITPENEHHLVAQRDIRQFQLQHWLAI
Chain of Melanocortin receptor 3 (P41968 whole entry): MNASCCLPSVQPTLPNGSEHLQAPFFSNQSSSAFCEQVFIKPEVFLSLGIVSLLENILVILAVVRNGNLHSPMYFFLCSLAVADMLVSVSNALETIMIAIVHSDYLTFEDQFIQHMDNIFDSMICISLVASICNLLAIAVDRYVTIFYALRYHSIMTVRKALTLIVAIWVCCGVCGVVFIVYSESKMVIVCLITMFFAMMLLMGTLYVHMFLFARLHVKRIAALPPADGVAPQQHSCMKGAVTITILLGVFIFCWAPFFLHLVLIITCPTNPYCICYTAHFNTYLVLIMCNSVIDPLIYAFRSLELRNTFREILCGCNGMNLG
Chain of Voltage-gated inwardly rectifying potassium channel KCNH2 (Q12809 whole entry): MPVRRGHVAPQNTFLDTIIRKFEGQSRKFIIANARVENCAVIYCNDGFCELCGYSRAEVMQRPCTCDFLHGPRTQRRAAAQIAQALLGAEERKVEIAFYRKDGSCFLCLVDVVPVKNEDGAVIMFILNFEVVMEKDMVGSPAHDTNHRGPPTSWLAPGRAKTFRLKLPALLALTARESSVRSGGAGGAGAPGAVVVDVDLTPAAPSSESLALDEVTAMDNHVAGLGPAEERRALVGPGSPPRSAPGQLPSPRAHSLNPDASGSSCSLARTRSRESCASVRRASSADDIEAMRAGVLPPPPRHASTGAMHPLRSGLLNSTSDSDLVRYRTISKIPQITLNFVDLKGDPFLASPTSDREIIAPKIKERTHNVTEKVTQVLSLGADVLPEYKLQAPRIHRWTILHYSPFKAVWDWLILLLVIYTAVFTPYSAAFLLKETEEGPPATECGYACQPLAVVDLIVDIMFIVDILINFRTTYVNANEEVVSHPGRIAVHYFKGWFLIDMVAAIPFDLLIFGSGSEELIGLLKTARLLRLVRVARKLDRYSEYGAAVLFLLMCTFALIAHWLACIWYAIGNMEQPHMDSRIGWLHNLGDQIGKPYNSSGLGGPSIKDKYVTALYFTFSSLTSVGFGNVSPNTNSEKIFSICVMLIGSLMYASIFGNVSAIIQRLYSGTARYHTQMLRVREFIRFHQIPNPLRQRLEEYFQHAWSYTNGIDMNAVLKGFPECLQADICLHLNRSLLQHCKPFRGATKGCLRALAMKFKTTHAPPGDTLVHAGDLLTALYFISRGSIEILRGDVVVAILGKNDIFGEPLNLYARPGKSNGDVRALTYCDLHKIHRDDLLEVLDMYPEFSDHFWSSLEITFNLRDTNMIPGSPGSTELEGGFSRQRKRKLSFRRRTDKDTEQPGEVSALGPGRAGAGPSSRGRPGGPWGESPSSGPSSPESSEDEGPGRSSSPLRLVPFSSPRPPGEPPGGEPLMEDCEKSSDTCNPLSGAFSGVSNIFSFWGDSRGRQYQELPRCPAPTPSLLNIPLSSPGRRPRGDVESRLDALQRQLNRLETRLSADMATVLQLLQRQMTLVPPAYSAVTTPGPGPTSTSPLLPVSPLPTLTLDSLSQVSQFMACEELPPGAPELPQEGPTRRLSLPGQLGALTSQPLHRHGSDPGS
Chain of D(3) dopamine receptor (P35462 whole entry): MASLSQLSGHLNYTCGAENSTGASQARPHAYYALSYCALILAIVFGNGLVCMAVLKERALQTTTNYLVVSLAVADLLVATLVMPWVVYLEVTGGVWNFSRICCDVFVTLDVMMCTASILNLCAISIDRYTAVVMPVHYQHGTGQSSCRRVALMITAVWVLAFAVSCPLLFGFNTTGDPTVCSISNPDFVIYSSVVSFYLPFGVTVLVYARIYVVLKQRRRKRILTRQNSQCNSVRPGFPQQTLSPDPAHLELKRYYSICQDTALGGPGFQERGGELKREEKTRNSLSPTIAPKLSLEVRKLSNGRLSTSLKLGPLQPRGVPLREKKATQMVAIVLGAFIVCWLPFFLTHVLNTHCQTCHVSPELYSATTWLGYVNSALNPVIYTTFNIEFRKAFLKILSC
Chain of Adenosine receptor A2a (P29274 whole entry): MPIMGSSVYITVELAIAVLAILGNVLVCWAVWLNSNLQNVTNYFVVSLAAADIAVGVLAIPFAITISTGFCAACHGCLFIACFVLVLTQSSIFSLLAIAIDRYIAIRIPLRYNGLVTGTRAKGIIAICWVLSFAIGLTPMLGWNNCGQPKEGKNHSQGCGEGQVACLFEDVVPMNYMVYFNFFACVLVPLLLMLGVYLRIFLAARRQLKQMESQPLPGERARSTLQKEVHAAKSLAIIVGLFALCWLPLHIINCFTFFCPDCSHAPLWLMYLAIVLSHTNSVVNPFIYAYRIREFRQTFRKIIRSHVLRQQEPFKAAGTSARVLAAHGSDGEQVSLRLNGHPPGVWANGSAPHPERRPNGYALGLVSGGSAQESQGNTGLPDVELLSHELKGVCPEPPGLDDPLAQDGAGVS

As usually defined, the AC50 is the concentration giving half of the maximal activity seen. Take `CCOCC(O)COc1ccc(NC(=O)CC[S+](C)C)cc1` (centres undefined): the AC50 (in assay [1]; on Adenosine receptor A1; in [2]; at Adenosine receptor A3; in assay [3]; at Melanocortin receptor 3) was greater than 30 µM each time. In addition, the half-maximal activity concentration (AC50) (in assay [4]; on Adenosine receptor A2a; in assay [5]; in assay [6]; at D(1A) dopamine receptor; at D(3) dopamine receptor) was greater than 30 µM in each case.
Consider `CCOC(=O)[C@H](CCc1ccccc1)N[C@@H](C)C(=O)N1Cc2ccccc2C[C@H]1C(=O)O`, for which the AC50 was greater than 10 µM in assay [1]; greater than 30 µM on Adenosine receptor A1; greater than 30 µM in assay [2]; greater than 30 µM on Adenosine receptor A3; greater than 10 µM in [3]; greater than 30 µM on Melanocortin receptor 3. Moreover, the concentration at half-maximal activity (AC50) in [4] is greater than 30 µM; on Adenosine receptor A2a, greater than 30 µM; in assay [5], greater than 30 µM; in assay [6], greater than 10 µM; on D(1A) dopamine receptor it was greater than 10 µM; on D(3) dopamine receptor, greater than 10 µM.
Take `C=CC1=C(C(=O)O)N2C(=O)[C@@H](NC(=O)/C(=N\O)c3csc(N)n3)[C@H]2SC1`: the half-maximal activity concentration (AC50) is greater than 30 µM in assay [1]; greater than 30 µM on Adenosine receptor A1; greater than 30 µM in assay [2]; greater than 30 µM at Adenosine receptor A3; greater than 10 µM in assay [3]; greater than 30 µM at Melanocortin receptor 3. Moreover, the concentration at half-maximal activity (AC50) in [4] was greater than 30 µM; at Adenosine receptor A2a, greater than 30 µM; in assay [5] it was greater than 30 µM; in [6], greater than 30 µM; on D(1A) dopamine receptor it was greater than 10 µM; at D(3) dopamine receptor, greater than 30 µM.
For `O=C(O)COC(=O)Cc1ccccc1Nc1c(Cl)cccc1Cl` [ACECLOFENAC], the concentration at half-maximal activity (AC50) in [1] was greater than 30 µM; at Adenosine receptor A1 it was greater than 30 µM; in assay [2], greater than 30 µM; at Adenosine receptor A3 it was greater than 30 µM; in assay [3], greater than 10 µM; at Melanocortin receptor 3, greater than 30 µM. In addition, the half-maximal activity concentration (AC50) in assay [4] is greater than 30 µM; at Adenosine receptor A2a, greater than 30 µM; in assay [5] it was greater than 30 µM; in assay [6], greater than 30 µM; on D(1A) dopamine receptor it was greater than 10 µM; on D(3) dopamine receptor, greater than 30 µM.
For `CN(C)CCc1c[nH]c2ccc(CS(=O)(=O)N3CCCC3)cc12` [ALMOTRIPTAN], the AC50 in assay [1] is greater than 30 µM; at Adenosine receptor A1 it was greater than 30 µM; in [2] it was 15 µM; on Adenosine receptor A3, greater than 30 µM; in assay [3] it was 25 µM; on Melanocortin receptor 3, greater than 30 µM. Also, the half-maximal activity concentration (AC50) (in assay [4]; at Adenosine receptor A2a; in assay [5]; in assay [6]; on D(1A) dopamine receptor; on D(3) dopamine receptor) was greater than 30 µM each time.
With `NCCCCCC(=O)O` [AMINOCAPROIC ACID], the concentration at half-maximal activity (AC50) in assay [1] was 20.4 µM; on Adenosine receptor A1 it was greater than 10 µM; in [2] it was greater than 30 µM; at Adenosine receptor A3, greater than 10 µM; in assay [3] it was greater than 10 µM; on Melanocortin receptor 3, greater than 10 µM. Moreover, the AC50 was greater than 30 µM in assay [4]; greater than 10 µM on Adenosine receptor A2a; greater than 10 µM in assay [5]; greater than 30 µM in assay [6]; greater than 10 µM at D(1A) dopamine receptor; greater than 30 µM on D(3) dopamine receptor.
Take `CC(=O)Oc1ccccc1C(=O)O` [ASPIRIN]: the AC50 in [1] was greater than 30 µM; at Adenosine receptor A1 it was greater than 30 µM; in assay [2], greater than 30 µM; at Adenosine receptor A3, greater than 30 µM; in assay [3], greater than 10 µM; on Melanocortin receptor 3 it was greater than 30 µM. In addition, the half-maximal activity concentration (AC50) is greater than 30 µM in assay [4]; greater than 30 µM at Adenosine receptor A2a; greater than 30 µM in [5]; greater than 30 µM in [6]; greater than 10 µM on D(1A) dopamine receptor; greater than 30 µM on D(3) dopamine receptor.
In the case of `CC(C)C[C@H](NC(=O)[C@H](Cc1ccccc1)NC(=O)c1cnccn1)B(O)O` [BORTEZOMIB], the concentration at half-maximal activity (AC50) (in assay [1]; on Adenosine receptor A1; in assay [2]; on Adenosine receptor A3; in assay [3]; at Melanocortin receptor 3) was greater than 30 µM each time. For the same molecule, the half-maximal activity concentration (AC50) (in assay [4]; at Adenosine receptor A2a; in [5]; in [6]; on D(1A) dopamine receptor; on D(3) dopamine receptor) was greater than 30 µM throughout.
On to `CN(C)CCOC(c1ccc(Cl)cc1)c1ccccn1` (centres undefined) [CARBINOXAMINE], for which the concentration at half-maximal activity (AC50) is 24 µM in assay [1]; greater than 30 µM at Adenosine receptor A1; 1.3 µM in [2]; greater than 30 µM on Adenosine receptor A3; greater than 30 µM in assay [3]; greater than 30 µM at Melanocortin receptor 3. The AC50 (in assay [4]; at Adenosine receptor A2a; in [5]; in [6]; at D(1A) dopamine receptor; at D(3) dopamine receptor) was greater than 30 µM in each case.
Take `CCN(CC)CCn1c(=O)c(Cc2ccc(OC)cc2)nc2ccccc21` [CAROVERINE]: the concentration at half-maximal activity (AC50) in [1] is greater than 30 µM; on Adenosine receptor A1 it was greater than 30 µM; in assay [2], 0.16 µM; at Adenosine receptor A3, 27 µM; in assay [3], greater than 30 µM; on Melanocortin receptor 3, greater than 30 µM. The half-maximal activity concentration (AC50) was greater than 30 µM in assay [4]; greater than 30 µM on Adenosine receptor A2a; greater than 30 µM in assay [5]; greater than 30 µM in assay [6]; greater than 30 µM on D(1A) dopamine receptor; 7.34 µM at D(3) dopamine receptor.
With `C[C@H](CCC(=O)O)[C@H]1CC[C@H]2[C@@H]3[C@H](O)C[C@@H]4C[C@H](O)CC[C@]4(C)[C@H]3CC[C@]12C` [CHENODIOL], the half-maximal activity concentration (AC50) (in [1]; at Adenosine receptor A1; in assay [2]; at Adenosine receptor A3; in [3]; at Melanocortin receptor 3) was greater than 30 µM in each case. Further, the AC50 (in assay [4]; on Adenosine receptor A2a; in [5]; in [6]; on D(1A) dopamine receptor; on D(3) dopamine receptor) was greater than 30 µM throughout.
On to `O=C(O)[C@H]1/C(=C/CO)O[C@@H]2CC(=O)N21` [CLAVULANIC ACID], for which the AC50 (in assay [1]; at Adenosine receptor A1; in assay [2]; on Adenosine receptor A3; in assay [3]; at Melanocortin receptor 3) was greater than 30 µM throughout. In addition, the AC50 (in [4]; at Adenosine receptor A2a; in assay [5]; in assay [6]; at D(1A) dopamine receptor; at D(3) dopamine receptor) was greater than 30 µM throughout.
